In US5641789A, “Sulfonamide derivatives of benzenefused hydroxy substituted cycloalkyl and heterocyclic ring compounds” (Pfizer Inc., priority 1995, dated 1997):

Test system: PAF lethality in CD1 mice
Test: PAF lethality assay
Format: in vivo
Details: Mus musculus; positive control; oral dosing 45 minutes before i.v. PAF; percent mortality compared to controls
Description: To evaluate the active compounds of the present invention, in vivo, they are tested by the so-called PAF lethality assay procedure: Materials:
Mice: CD1 males, all approximately the same weight (about 26 grams), 12 per group.
Vehicle for oral drug dosing: EES (5% ethanol, 5% emulphor, 90% saline). Stored at room temperature.
Drugs: For routine screening at 50 mg/kg, 20 mg drug is dissolved in 4 ml EES, using sonication in a sonicator bath or grinding in a Ten Broeck (trademark) grinder to dissolve drug if necessary. If solubility is still a problem, the drug is used as a suspension.
Vehicle for i.v. Injection: Saline with 2.5 mg/ml Bovine Serum Albumin (BSA, Sigma #A4378) and 0.05 mg/ml Propranolol (Sigma #P0884). Prepared fresh daily and kept at room temperature.
Platelet Activating Factor (PAF): A […] stock solution is prepared by dissolving 1 mg PAF (Calbiochem #429460) in 0.18 ml ethanol. This stored at -20° C. and is diluted in vehicle (see above) the day of use. The concentration of PAF used is calibrated so that when injected at 0.1 ml/10 grams body weight, it will kill approximately 80% of untreated controls. This is usually about […] (a 1 to 2034 dilution from stock). […]
45 minutes before PAF injection, mice are treated orally with drug using 0.1 ml/10 grams body weight. […] Results are expressed as percent mortality as compared to controls. […]

O=C1CCN(c2ccccc2)N1 [Phenidone]
ED50: ~25 mg/kg
